Assay results from article PMC11576293, “New series of 4,6-diaryl pyrimidines: facile synthesis and antiproliferative activity as dual EGFR/VEGFR-2 inhibitors” (Frontiers in Chemistry, 2024).

Tests used:
Test in all cases: NCI-60 single-dose screen
Format in all cases: cell-based
[1] = system: 786-0; settings: Homo sapiens, single dose 10 µM, '-' = no inhibition, read-out: % Growth Inhibition
Method in brief: (§1)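 Was run as a one-dose (10 μM) screen by the NCI Developmental Therapeutics Program, covering 60 tumour cell lines from nine cancer types including renal, melanoma and CNS.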

[2] = system: A498; settings: Homo sapiens, single dose 10 µM, '-' = no inhibition, read-out: % Growth Inhibition
Method in brief: as §1

[3] = system: A549/ATCC; settings: Homo sapiens, single dose 10 µM, '-' = no inhibition, read-out: % Growth Inhibition
Method in brief: as §1

[4] = system: ACHN 1; settings: Homo sapiens, single dose 10 µM, '-' = no inhibition, read-out: % Growth Inhibition
Method in brief: as §1

[5] = system: BT-549; settings: Homo sapiens, single dose 10 µM, '-' = no inhibition, read-out: % Growth Inhibition
Method in brief: as §1

[6] = system: CCRF-CEM; settings: Homo sapiens, single dose 10 µM, '-' = no inhibition, read-out: % Growth Inhibition
Method in brief: as §1

[7] = system: COLO 205; settings: Homo sapiens, single dose 10 µM, '-' = no inhibition, read-out: % Growth Inhibition
Method in brief: as §1

[8] = system: EKVX; settings: Homo sapiens, single dose 10 µM, '-' = no inhibition, read-out: % Growth Inhibition
Method in brief: as §1

[9] = system: HCC-2998; settings: Homo sapiens, single dose 10 µM, '-' = no inhibition, read-out: % Growth Inhibition
Method in brief: as §1

[10] = system: HCT-15; settings: Homo sapiens, single dose 10 µM, '-' = no inhibition, read-out: % Growth Inhibition
Method in brief: as §1

[11] = system: HL-60(TB); settings: Homo sapiens, single dose 10 µM, '-' = no inhibition, read-out: % Growth Inhibition
[12] = system: HOP-62; settings: Homo sapiens, single dose 10 µM, '-' = no inhibition, read-out: % Growth Inhibition
Method in brief: as §1

[13] = system: HT29; settings: Homo sapiens, HT-29, single dose 10 µM, '-' = no inhibition, read-out: % Growth Inhibition
Method in brief: as §1

[14] = system: IGROV1; settings: Homo sapiens, IGROV-1, single dose 10 µM, '-' = no inhibition, read-out: % Growth Inhibition
Method in brief: as §1

[15] = system: K-562; settings: Homo sapiens, K562, single dose 10 µM, '-' = no inhibition, read-out: % Growth Inhibition
Method in brief: as §1

[16] = system: LOX IMVI; settings: Homo sapiens, single dose 10 µM, '-' = no inhibition, read-out: % Growth Inhibition
Method in brief: as §1

[17] = system: M14; settings: Homo sapiens, single dose 10 µM, '-' = no inhibition, read-out: % Growth Inhibition
Method in brief: as §1

[18] = system: MALME-3M; settings: Homo sapiens, single dose 10 µM, '-' = no inhibition, read-out: % Growth Inhibition
Method in brief: as §1

[19] = system: MCF7; settings: Homo sapiens, single dose 10 µM, '-' = no inhibition, read-out: % Growth Inhibition
Method in brief: as §1

[20] = system: MDA-MB-468; settings: Homo sapiens, single dose 10 µM, '-' = no inhibition, read-out: % Growth Inhibition
Method in brief: as §1

[21] = system: MDA-MB231/ATCC; settings: Homo sapiens, MDA-MB-231, single dose 10 µM, '-' = no inhibition, read-out: % Growth Inhibition
Method in brief: as §1

[22] = system: NCI-H23; settings: Homo sapiens, single dose 10 µM, '-' = no inhibition, read-out: % Growth Inhibition
Method in brief: as §1

[23] = system: NCI-H322M; settings: Homo sapiens, single dose 10 µM, '-' = no inhibition, read-out: % Growth Inhibition
Method in brief: as §1

[24] = system: NCI-H460; settings: Homo sapiens, single dose 10 µM, '-' = no inhibition, read-out: % Growth Inhibition
Method in brief: as §1

[25] = system: NCI-H522; settings: Homo sapiens, single dose 10 µM, '-' = no inhibition, read-out: % Growth Inhibition
Method in brief: as §1

[26] = system: NCI/ADR-RES; settings: Homo sapiens, single dose 10 µM, '-' = no inhibition, read-out: % Growth Inhibition
Method in brief: as §1

[27] = system: OVCAR-4; settings: Homo sapiens, single dose 10 µM, '-' = no inhibition, read-out: % Growth Inhibition
Method in brief: as §1

[28] = system: OVCAR-5; settings: Homo sapiens, single dose 10 µM, '-' = no inhibition, read-out: % Growth Inhibition
Method in brief: as §1

[29] = system: OVCAR-8; settings: Homo sapiens, single dose 10 µM, '-' = no inhibition, read-out: % Growth Inhibition
Method in brief: as §1

[30] = system: PC-3; settings: Homo sapiens, single dose 10 µM, '-' = no inhibition, read-out: % Growth Inhibition
Method in brief: as §1

[31] = system: RPMI-8226; settings: Homo sapiens, single dose 10 µM, '-' = no inhibition, read-out: % Growth Inhibition
Method in brief: as §1

[32] = system: RXF 393; settings: Homo sapiens, single dose 10 µM, '-' = no inhibition, read-out: % Growth Inhibition
Method in brief: as §1

[33] = system: SF-539; settings: Homo sapiens, single dose 10 µM, '-' = no inhibition, read-out: % Growth Inhibition
Method in brief: as §1

[34] = system: SK-MEL-28; settings: Homo sapiens, single dose 10 µM, '-' = no inhibition, read-out: % Growth Inhibition
Method in brief: as §1

[35] = system: SK-MEL-2; settings: Homo sapiens, single dose 10 µM, '-' = no inhibition, read-out: % Growth Inhibition
Method in brief: as §1

[36] = system: SK-MEL-5; settings: Homo sapiens, single dose 10 µM, '-' = no inhibition, read-out: % Growth Inhibition
Method in brief: as §1

[37] = system: SK-OV-3; settings: Homo sapiens, single dose 10 µM, '-' = no inhibition, read-out: % Growth Inhibition
Method in brief: as §1

[38] = system: SNB-19; settings: Homo sapiens, single dose 10 µM, '-' = no inhibition, read-out: % Growth Inhibition
Method in brief: as §1

[39] = system: SNB-75; settings: Homo sapiens, single dose 10 µM, '-' = no inhibition, read-out: % Growth Inhibition
Method in brief: as §1

[40] = system: SR; settings: Homo sapiens, single dose 10 µM, '-' = no inhibition, read-out: % Growth Inhibition
Method in brief: as §1

[41] = system: T-47D; settings: Homo sapiens, T47D, single dose 10 µM, '-' = no inhibition, read-out: % Growth Inhibition
Method in brief: as §1

[42] = system: TK-10; settings: Homo sapiens, single dose 10 µM, '-' = no inhibition, read-out: % Growth Inhibition
Method in brief: as §1

[43] = system: U251; settings: Homo sapiens, U-251, single dose 10 µM, '-' = no inhibition, read-out: % Growth Inhibition
Method in brief: as §1

[44] = system: UACC-257; settings: Homo sapiens, single dose 10 µM, '-' = no inhibition, read-out: % Growth Inhibition
Method in brief: as §1

[45] = system: UACC-62; settings: Homo sapiens, single dose 10 µM, '-' = no inhibition, read-out: % Growth Inhibition
Method in brief: as §1

[46] = system: UO-31; settings: Homo sapiens, single dose 10 µM, '-' = no inhibition, read-out: % Growth Inhibition
Method in brief: as §1

CCCSc1nc(-c2ccc(Cl)cc2)cc(-c2ccc(OC)cc2)n1 [Compound 11, 4-(4-Chlorophenyl)-6-(4-methoxyphenyl)-2-(propylthio)pyrimidine]
inhibition at 10 µM [1]: 0.11%
inhibition at 10 µM [2]: 2.73%
inhibition at 10 µM [3]: 6.74%
inhibition at 10 µM [4]: < 0%
inhibition at 10 µM [5]: < 0%
inhibition at 10 µM [6]: 1.71%
inhibition at 10 µM [7]: < 0%
inhibition at 10 µM [8]: 6.92%
inhibition at 10 µM [9]: < 0%
inhibition at 10 µM [10]: 7.25%
inhibition at 10 µM [11]: 13.5%
inhibition at 10 µM [12]: < 0%
inhibition at 10 µM [13]: 10.7%
inhibition at 10 µM [14]: < 0%
inhibition at 10 µM [15]: 6.55%
inhibition at 10 µM [16]: < 0%
inhibition at 10 µM [17]: < 0%
inhibition at 10 µM [18]: < 0%
inhibition at 10 µM [19]: 4.02%
inhibition at 10 µM [20]: 7.92%
inhibition at 10 µM [21]: < 0%
inhibition at 10 µM [22]: < 0%
inhibition at 10 µM [23]: < 0%
inhibition at 10 µM [24]: < 0%
inhibition at 10 µM [25]: 9.17%
inhibition at 10 µM [26]: < 0%
inhibition at 10 µM [27]: < 0%
inhibition at 10 µM [28]: < 0%
inhibition at 10 µM [29]: 2.49%
inhibition at 10 µM [30]: < 0%
inhibition at 10 µM [31]: < 0%
inhibition at 10 µM [32]: < 0%
inhibition at 10 µM [33]: < 0%
inhibition at 10 µM [34]: < 0%
inhibition at 10 µM [35]: 7.18%
inhibition at 10 µM [36]: 3.98%
inhibition at 10 µM [37]: < 0%
inhibition at 10 µM [38]: 1.03%
inhibition at 10 µM [39]: < 0%
inhibition at 10 µM [40]: 14.6%
inhibition at 10 µM [41]: 8.26%
inhibition at 10 µM [42]: < 0%
inhibition at 10 µM [43]: 5.99%
inhibition at 10 µM [44]: < 0%
inhibition at 10 µM [45]: 18.1%
inhibition at 10 µM [46]: 9.15%
